Species: Rattus norvegicus
Test: DrugMatrix - Regimen: Daily Repeat
Assay type: toxicity, organism-based, Sprague-Dawley
Set-up: regimen Daily Repeat, gender Male, age 6-8 weeks
Settings: in vivo, po, route oral GAVAGE, vehicle 100 % WATER
[1] = 0 mg/kg, 72 h, tissue Blood, dose level Control, time 3 day
[2] = 0 mg/kg, 72 h, tissue Plasma, dose level Control, time 3 day
[3] = 0 mg/kg, 120 h, tissue Blood, dose level Control, time 5 day
[4] = 0 mg/kg, 120 h, tissue Plasma, dose level Control, time 5 day
[5] = 1 mg/kg, 72 h, tissue Blood, dose level Low, time 3 day
[6] = 1 mg/kg, 72 h, tissue Plasma, dose level Low, time 3 day

THIMEROSAL
ABSOLUTE BASOPHIL [1]: 0 CELLS/uL | ABSOLUTE EOSINOPHIL [1]: 123.17 CELLS/uL | ABSOLUTE MONOCYTE [1]: 66.17 CELLS/uL | ABSOLUTE SEGMENTED NEUTROPHIL [1]: 1149.5 CELLS/uL | BASOPHIL [1]: 0% | EOSINOPHIL [1]: 0.83% | ERYTHROCYTE COUNT [1]: 5.26 x10E6/uL | HEMATOCRIT [1]: 33.07% | LEUKOCYTE COUNT [1]: 14.02 x10E3/uL | LYMPHOCYTE [1]: 90.17% | MEAN CORPUSCULAR HEMOGLOBIN [1]: 25.62 pg | MEAN CORPUSCULAR HEMOGLOBIN CONCENTRATION [1]: 40.65 G/DL | MEAN CORPUSCULAR VOLUME [1]: 63 fL | MONOCYTE [1]: 0.5% | NEUTROPHIL [1]: 8.5% | NUCLEATED RED BLOOD CELLS [1]: 0.17 /100WBC | PLATELET COUNT [1]: 1142.83 x10E3/uL | ALANINE AMINOTRANSFERASE [2]: 45.17 u/L | ALKALINE PHOSPHATASE [2]: 340.17 u/L | ASPARTATE AMINOTRANSFERASE [2]: 77.33 u/L | BLOOD UREA NITROGEN [2]: 14.67 mg/dL | CREATINE PHOSPHOKINASE [2]: 263.67 u/L | CREATININE [2]: 0.15 mg/dL | LACTATE DEHYDROGENASE [2]: 230 u/L | PHOSPHORUS [2]: 11.8 mg/dL | POTASSIUM [2]: 5.91 MEQ/L | TOTAL BILIRUBIN [2]: 0.22 mg/dL | TOTAL PROTEIN [2]: 5.7 G/DL | URIC ACID [2]: 1.35 mg/dL | ABSOLUTE BASOPHIL [3]: 0 CELLS/uL | ABSOLUTE EOSINOPHIL [3]: 125 CELLS/uL | ABSOLUTE LYMPHOCYTE [3]: 13809 CELLS/uL | ABSOLUTE MONOCYTE [3]: 351 CELLS/uL | ABSOLUTE SEGMENTED NEUTROPHIL [3]: 1581.67 CELLS/uL | BASOPHIL [3]: 0% | EOSINOPHIL [3]: 0.67% | ERYTHROCYTE COUNT [3]: 5.53 x10E6/uL | HEMATOCRIT [3]: 34.83% | LEUKOCYTE COUNT [3]: 15.87 x10E3/uL | LYMPHOCYTE [3]: 87.5% | MEAN CORPUSCULAR HEMOGLOBIN [3]: 25.25 pg | MEAN CORPUSCULAR HEMOGLOBIN CONCENTRATION [3]: 40.08 G/DL | MEAN CORPUSCULAR VOLUME [3]: 63.05 fL | MONOCYTE [3]: 2.17% | NEUTROPHIL [3]: 9.67% | NUCLEATED RED BLOOD CELLS [3]: 0 /100WBC | PLATELET COUNT [3]: 1044 x10E3/uL | ALANINE AMINOTRANSFERASE [4]: 50.67 u/L | ALKALINE PHOSPHATASE [4]: 395 u/L | ASPARTATE AMINOTRANSFERASE [4]: 86 u/L | CARBON DIOXIDE [4]: 29.33 mmol/L | CHOLESTEROL [4]: 71.33 mg/dL | CREATINE PHOSPHOKINASE [4]: 323.17 u/L | CREATININE [4]: 0.18 mg/dL | LACTATE DEHYDROGENASE [4]: 389.5 u/L | LIPASE [4]: 9.83 u/L | PHOSPHORUS [4]: 11.35 mg/dL | POTASSIUM [4]: 6.39 MEQ/L | TOTAL BILIRUBIN [4]: 0.18 mg/dL | TOTAL PROTEIN [4]: 6.1 G/DL | URIC ACID [4]: 1.52 mg/dL | ABSOLUTE BASOPHIL [5]: 0 CELLS/uL | ABSOLUTE EOSINOPHIL [5]: 68 CELLS/uL | ABSOLUTE LYMPHOCYTE [5]: 13921 CELLS/uL | ABSOLUTE MONOCYTE [5]: 100.67 CELLS/uL | ABSOLUTE SEGMENTED NEUTROPHIL [5]: 710.33 CELLS/uL | BASOPHIL [5]: 0% | EOSINOPHIL [5]: 0.33% | ERYTHROCYTE COUNT [5]: 5.23 x10E6/uL | HEMATOCRIT [5]: 33.4% | HEMOGLOBIN [5]: 13.6 G/DL | LEUKOCYTE COUNT [5]: 14.8 x10E3/uL | LYMPHOCYTE [5]: 94.33% | MEAN CORPUSCULAR HEMOGLOBIN [5]: 26.03 pg | MEAN CORPUSCULAR HEMOGLOBIN CONCENTRATION [5]: 40.73 G/DL | MEAN CORPUSCULAR VOLUME [5]: 63.97 fL | MONOCYTE [5]: 0.67% | NEUTROPHIL [5]: 4.67% | NUCLEATED RED BLOOD CELLS [5]: 0 /100WBC | PLATELET COUNT [5]: 1138.67 x10E3/uL | ALANINE AMINOTRANSFERASE [6]: 49 u/L | ALKALINE PHOSPHATASE [6]: 344.33 u/L | ASPARTATE AMINOTRANSFERASE [6]: 77 u/L | BLOOD UREA NITROGEN [6]: 12.33 mg/dL | CHLORIDE [6]: 100 MEQ/L | CHOLESTEROL [6]: 82.33 mg/dL | CREATINE PHOSPHOKINASE [6]: 236.33 u/L | CREATININE [6]: 0.13 mg/dL | GLUCOSE [6]: 155 mg/dL | LACTATE DEHYDROGENASE [6]: 196.33 u/L | PHOSPHORUS [6]: 11.57 mg/dL | POTASSIUM [6]: 6.96 MEQ/L
